Reference: PubChem BioAssay AID328 (DTP/NCI, 2004)
“And” between values parts separate entries of the source, which are not always exact repeats. Identical values can stand only once. Inconclusive results and toxic doses are left out. The calls were made as follows: active = survival T/C of 150% or more; inactive = T/C below 125% in these data.

Tested on: BDF1 mice, P388 leukemia ip, median survival T/C
Assay: NCI In Vivo Anticancer Drug Screen. Data for tumor model P388 Leukemia (intraperitoneal) in B6D2F1 (BDF1) mice
Conditions: endpoint: median survival time, higher = longer survival
Outline: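 Steps: implant the tumour, treat one group with compound and another with vehicle, record survival, then divide treated by control.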

[1] = dose: 50.0 mg/kg/injection, schedule: Q01DX009 (ip), vehicle: saline with Tween-80
[2] = dose: 100.0 mg/kg/injection, schedule: Q01DX009 (ip), vehicle: saline with Tween-80
[3] = dose: 200.0 mg/kg/injection, schedule: Q01DX009 (ip), vehicle: saline with Tween-80
[4] = dose: 50.0 mg/kg/injection, schedule: Q04DX003 (ip), vehicle: saline with Tween-80
[5] = dose: 200.0 mg/kg/injection, schedule: Q04DX003 (ip), vehicle: saline with Tween-80
[6] = dose: 100.0 mg/kg/injection, schedule: Q01DX009 (ip), vehicle: saline
[7] = dose: 200.0 mg/kg/injection, schedule: Q01DX009 (ip), vehicle: saline
[8] = dose: 400.0 mg/kg/injection, schedule: Q01DX009 (ip), vehicle: saline
[9] = dose: 12.5 mg/kg/injection, schedule: Q01DX009 (ip), vehicle: saline with Tween-80
[10] = dose: 25.0 mg/kg/injection, schedule: Q01DX009 (ip), vehicle: saline with Tween-80
[11] = dose: 100.0 mg/kg/injection, schedule: Q04DX003 (ip), vehicle: saline with Tween-80
[12] = dose: 400.0 mg/kg/injection, schedule: Q04DX003 (ip), vehicle: saline with Tween-80

Measured: T/C

COc1ccc(Cc2c3ccccc3cc[n+]2C)cc1Oc1ccc(Cc2c3ccccc3cc[n+]2C)cc1
inactive: dose: 0.78 mg/kg/injection, schedule: Q01DX009 (ip), vehicle: saline 100 % of control | dose: 1.56 mg/kg/injection, schedule: Q01DX009 (ip), vehicle: saline 101 % of control

CC(=O)C1=CN(Cc2ccccc2)C(O)CC1C(N)=O (stereo not given)
inactive: [1] 101 % of control | [2] 109 % of control | [3] 115 % of control

O=C1c2ccccc2C(=O)c2c(NCCCCCO)ccc(NCCCCCO)c21
inactive: dose: 25.0 mg/kg/injection, schedule: Q01DX009 (ip), vehicle: other 88 % of control | dose: 100.0 mg/kg/injection, schedule: Q01DX009 (ip), vehicle: other 88 % of control

CC1CCCCN1O (stereo not given)
inactive: dose: 100.0 mg/kg/injection, schedule: Q04DX002 (ip), vehicle: saline with Tween-80 100 % of control | dose: 200.0 mg/kg/injection, schedule: Q04DX002 (ip), vehicle: saline with Tween-80 105 % of control | dose: 400.0 mg/kg/injection, schedule: Q04DX002 (ip), vehicle: saline with Tween-80 96 % of control

CC(C)(C)OC(=O)NNC(=O)C(CSC(c1ccccc1)c1ccccc1)N1C(=O)c2ccccc2C1=O (stereo not given)
inactive: dose: 100.0 mg/kg/injection, schedule: Q04DX003 (ip), vehicle: Klucel (hydroxypropylcellulose) (HPC) 95 % of control | dose: 200.0 mg/kg/injection, schedule: Q04DX003 (ip), vehicle: Klucel (hydroxypropylcellulose) (HPC) 100 % of control | dose: 400.0 mg/kg/injection, schedule: Q04DX003 (ip), vehicle: Klucel (hydroxypropylcellulose) (HPC) 90 % of control

C/C=C(/C)C(=O)O[C@H]1CC[N+]2([O-])CC=C(COC(=O)[C@@](O)([C@H](C)OC)C(C)(C)O)[C@H]12 (stereo not given in full)
inactive: dose: 40.0 mg/kg/injection, schedule: Q01DX010 (ip), vehicle: saline 105 % of control | dose: 50.0 mg/kg/injection, schedule: Q01DX010 (ip), vehicle: saline 86 % of control | dose: 80.0 mg/kg/injection, schedule: Q01DX010 (ip), vehicle: saline 111 % of control

CC12OC1C(=O)c1ccccc1C2=O (stereo not given)
inactive: dose: 0.75 mg/kg/injection, schedule: Q01DX009 (ip), vehicle: Klucel (hydroxypropylcellulose) (HPC) 87 % of control | dose: 1.5 mg/kg/injection, schedule: Q01DX009 (ip), vehicle: Klucel (hydroxypropylcellulose) (HPC) 100 % of control | dose: 2.5 mg/kg/injection, schedule: Q01DX009 (ip), vehicle: Klucel (hydroxypropylcellulose) (HPC) 89 % of control | dose: 3.0 mg/kg/injection, schedule: Q01DX009 (ip), vehicle: Klucel (hydroxypropylcellulose) (HPC) 95 % of control | dose: 5.0 mg/kg/injection, schedule: Q04DX003 (ip), vehicle: Klucel (hydroxypropylcellulose) (HPC) 92 % of control | dose: 10.0 mg/kg/injection, schedule: Q04DX003 (ip), vehicle: Klucel (hydroxypropylcellulose) (HPC) 92 % of control

CCCCNC(C)(C)C(SSSC(c1ccco1)C(C)(C)NCCCC)c1ccco1 (stereo not given)
inactive: [4] 115 % of control | [5] 120 % of control

FC(F)(F)c1cccc(C=Nc2ccc(Oc3ccccc3)cc2)c1
inactive: dose: 50.0 mg/kg/injection, schedule: Q01DX009 (ip), vehicle: saline + alcohol 97 % of control | dose: 100.0 mg/kg/injection, schedule: Q01DX009 (ip), vehicle: saline + alcohol 91 % of control | dose: 200.0 mg/kg/injection, schedule: Q01DX009 (ip), vehicle: saline + alcohol 100 % of control

COc1ccc(C(C)=O)c(OC)c1C
inactive: [6] 104 % of control | [7] 96 % of control | [8] 100 % of control

CCCCNC(c1ccc(C=NC(CC)(CO)CO)cc1)C(Br)(Br)Br (stereo not given)
inactive: dose: 50.0 mg/kg/injection, schedule: Q04DX003 (ip), vehicle: other 100 % of control | dose: 100.0 mg/kg/injection, schedule: Q04DX003 (ip), vehicle: other 100 % of control | dose: 200.0 mg/kg/injection, schedule: Q04DX003 (ip), vehicle: other 104 % of control

CCOC1=Cc2c(oc3c(C(C)(C)C)cc(OCC)cc23)OC(C(C)(C)C)=C1
inactive: dose: 3.12 mg/kg/injection, schedule: Q01DX009 (ip), vehicle: saline with Tween-80 112 % of control | dose: 6.25 mg/kg/injection, schedule: Q01DX009 (ip), vehicle: saline with Tween-80 122 % of control | [9] 122 % of control | [10] 100 % of control and 121 % of control | [1] 101 % of control

COC(=O)C1CC(=O)N(C)c2sc(C)c(C)c2C1=O (stereo not given)
inactive: dose: 25.0 mg/kg/injection, schedule: Q04DX003 (ip), vehicle: saline with Tween-80 107 % of control | [1] 111 % of control | [4] 92 % of control and 94 % of control | [2] 111 % of control | [11] 92 % of control | [3] 92 % of control | [5] 95 % of control and 104 % of control | [12] 100 % of control and 107 % of control | dose: 500.0 mg/kg/injection, schedule: Q04DX003 (ip), vehicle: saline with Tween-80 100 % of control

O=[N+]([O-])c1ccc(S(=O)(=O)N/N=C\c2ccc(Cl)c(Cl)c2)cc1
inactive: [9] 95 % of control | [10] 92 % of control | [1] 100 % of control

CC(C)NC(=O)C12CC3CC(CC(C3)C1)C2
inactive: [1] 92 % of control | [2] 87 % of control | [3] 100 % of control

Cc1cc(=O)[nH]c(N/N=C/c2ccco2)n1
inactive: dose: 12.5 mg/kg/injection, schedule: Q01DX009 (ip), vehicle: gum acacia 108 % of control | dose: 25.0 mg/kg/injection, schedule: Q01DX009 (ip), vehicle: gum acacia 104 % of control | dose: 50.0 mg/kg/injection, schedule: Q01DX009 (ip), vehicle: gum acacia 108 % of control | dose: 100.0 mg/kg/injection, schedule: Q04DX003 (ip), vehicle: gum acacia 109 % of control | dose: 200.0 mg/kg/injection, schedule: Q04DX003 (ip), vehicle: gum acacia 118 % of control

CC(C)CCCCc1c[nH]c(=O)[nH]c1=O
inactive: [11] 100 % of control | [5] 100 % of control | [12] 100 % of control

CCCCCC(C[N+]1(C)CCOCC1)C(=O)/C=C/c1ccccc1 (stereo not given)
inactive: dose: 12.5 mg/kg/injection, schedule: Q01DX009 (ip), vehicle: saline 95 % of control | dose: 25.0 mg/kg/injection, schedule: Q01DX009 (ip), vehicle: saline 120 % of control | dose: 50.0 mg/kg/injection, schedule: Q01DX009 (ip), vehicle: saline 124 % of control

CC(C)(Br)C(=O)c1ccco1
inactive: [10] 109 % of control | [1] 113 % of control | [2] 113 % of control

Cc1ccc(O)cc1Cl
inactive: [6] 96 % of control | [7] 104 % of control | [8] 104 % of control
